logP data for 17 compounds are collected here from the OPERA property sets (Mansouri et al. 2018).

In general, logP refers to a log measure of how a compound divides between an organic and an aqueous phase. The low end stands for a more hydrophilic compound, the high end for a more lipophilic compound.

Structures are written as SMILES.

`COc1ccccc1N1CCN(CCNC(=O)C2CCCCC2)CC1` registered a logP of 2.8.

Take `COc1ccccc1N1CCN(CCCCc2ccc(F)cc2)CC1`: the log partition coefficient (logP) turned out to be 4.8.

Compound `COc1ccccc1N1CCN(CCNC(=S)C2CCCCC2)CC1` yielded a lipophilicity (logP) of 3.7.

`COc1ccccc1N1CCN(CCNC(C)=O)CC1` returned a log partition coefficient (logP) of 0.5.

`COc1ccccc1N1CCN(CCC=Cc2ccc(F)cc2)CC1`: the lipophilicity (logP) was determined as 4.7.

With `COc1ccccc1N1CCN(CCCC(=O)c2ccc(F)cc2)CC1`, the logP is 3.6.

As for `COc1ccccc1N1CCN(CCNC(=O)c2cccnc2)CC1`, the logP is 1.2.

`COc1ccccc1N1CCN(CCNC(=N)C2CCCCC2)CC1` came in with a log partition coefficient (logP) of 3.4.

`COc1ccccc1N1CCN(CCNC(=O)c2ccc[nH]2)CC1` returned a logP of 1.6.

On to `COc1ccccc1N1CCN(CCCC(O)c2ccc(F)cc2)CC1` (configuration not stated), for which the log partition coefficient (logP) amounted to 3.4.

Compound `COc1ccccc1N1CCN(CCNC(=O)c2ccco2)CC1` displayed a log partition coefficient (logP) of 1.6.

For the compound `COc1ccccc1N1CCN(CCNC(=O)c2cccs2)CC1`, the logP is 2.

Compound `COc1ccccc1N1CCN(CCNC(=O)c2ccccc2)CC1` had a lipophilicity (logP) of 2.2.

Turning to `COc1ccccc1N1CCN(CCOCc2ccc(F)cc2)CC1`, the logP was determined as 3.6.

The compound `COc1ccccc1N1CCN(CCCOc2ccc(F)cc2)CC1` displayed a logP of 4.1.

As for `COc1ccccc1N1CCN(CCNC(=O)c2ccncn2)CC1`, the lipophilicity (logP) was 1.5.

In the case of `COc1ccccc1N1CCN(CCNC(=O)c2ccc(F)cc2)CC1`, the logP is 2.5.
